Experimental findings from patent publication US6719969B1, “Treatment of liver disease and injury with CXC chemokines” (The Regents of The University of Michigan, priority 1999, dated 2004) are described below.

For one data set, the system named is CBA/J mice. The experiment in a line: Acetaminophen dose response in CBA/J mice. The data set is classed as in vivo, mouse. Particulars: 8 h fast. Here is the method: (§1) Six wk old female CBA/J mice (Jackson Laboratory, Bar Harbor, Me.) were fasted, but with free access to water, for 8 h prior to intraperitoneal (I.P.) injection of acetaminophen (Sigma) at 200 or 300 mg/kg, dissolved in normal saline. After injection, the animals were allowed free access to food. Mice were euthanized and liver was taken from the mice at various time points after acetaminophen injection into the mice.
To determine the level of acetaminophen that was necessary to induce liver damage, a dose response was performed. In these studies, normal CBA/J mice were fasted for 8 h and subsequently given an intraperitoneal injection of acetaminophen dissolved in PBS or PBS alone for control. Mouse survival was followed for 4 days when the study was terminated. 20 mice/group were used in 2 separate studies.

The next data set concerns CD1 and BALB/c mice. Description: Acetaminophen lethality, pilot studies in CD1 and BALB/c mice. The data set is classed as in vivo, mouse. Particulars: 400 mg/kg i.p., 12 h fast. Here is the method: Protocol 2: In the second series of studies, CD1, CXCR2ko and CXCR2wt mice were allowed free access to water for 12 h prior to an i.p. injection of 400 mg/kg acetaminophen. All acetaminophen challenged mice were fasted in this manner because previous studies have shown that fasting promotes hepatic susceptibility to acetaminophen toxicity by decreasing the inactivation of chemically reactive metabolites […], allowing these metabolites to bind hepatocyte proteins and cause cell damage (Whitcomb and Block, 1994; Pessayre et al., 1979; each incorporated herein by reference). […] Two hours prior to acetaminophen challenge, CD1 mice (n=1 0/group) were injected with 0.5 ml of normal rabbit serum or anti-mouse MIP-2 antiserum, and mouse survival was monitored for the subsequent 4 days. CXCR2ko and CXCR2wt mice (n=5/group) were injected i.p. with the same dose of acetaminophen, and mouse survival was monitored for 4 days.

In data set [1] the test system is CBA/J mice treated with acetaminophen. Description: Exogenous SCF at lethal acetaminophen dose. The format is in vivo, mouse. How it is done: as §1
Hepatic damage was measured using an AXIO-HOME microscope by 2 independent investigators. Sections of liver tissue (2 from each animal) were stained with hematoxylin and eosin and the area of hepatic damage was outlined and expressed as a % of total liver area examined.
In order to finally determine whether SCF has a role in protecting the animals from acetaminophen toxicity, 1 μg of recombinant murine SCF or saline was injected i.v. at the time of or within 30 min. of acetaminophen challenge. The survival of animals was recorded for 4 days and the study was terminated. % Survival data was collected from 2 separate studies with a total of 20 mice in each treatment group.

For `CC(=O)Nc1ccc(O)cc1` [acetaminophen], the Lethality result with CBA/J mice (200 mg/kg i.p.) is on record as “no lethality”; with CBA/J mice (300 mg/kg i.p., by 48 h) it was ~100%; with CD1 and BALB/c mice it was “approximately 10%”.

B1: SCF: recombinant murine stem cell factor (protein)
chain: KEICGNPVTDNVKDITKLVANLPNDYMITLNYVAGMDVLPSHCWLRDMVIQLSLSLTTLLDKFSNISEGLSNYSIIDKLGKIVDDLVLCMEENAPKNIKESPKRPETRSFTPEEFFSIFNRSIDAFKDFMVASDTSDCVLSSTLGPEKDSRVSVTKPFMLPPVA
Take B1: the “Hepatocyte proliferation in vitro” value in the data set on hepatocytes was “can directly induce hepatocyte proliferation in vitro”. For the same molecule, the Survival in data set [1] (1 ug i.v. at or within 30 min of lethal acetaminophen dose, 4 days) came to 90%. Also, the Liver histology result in data set [1] (300 mg/kg acetaminophen, 1 ug SCF) is on record as “no necrotic areas”.
